Experimental data reported in ChEMBL document CHEMBL3301546, “MMV Malaria Box yeast growth screening”.

Assays:
Assay type in all cases: functional
Saccharomyces cerevisiae [1] = test: (§1) MMV: Growth assays were conducted using the prototrophic S. cerevisiae strain JHY222. Each MMV compound (0.1 mM) was tested in rich media containing dextrose as a carbon source (Yeast Extract, Peptone, Dextrose; YPD). The growth rate in the presence of each MMV compound was calculated as follows: (i) the first 10 OD readings were averaged and subtracted from all OD readings of the corresponding curve to set the baseline of the growth curve to zero, and (ii) the area under the curve (AUC) was then calculated as the sum of all OD readings. […] A relative growth value was calculated as follows: AUC(DRUG) - AUC(DMSO)/AUC(DMSO); where AUC(DMSO) represents growth measured in a DMSO control well that was on the same microtiter plate of the drug-treated culture.
Saccharomyces cerevisiae [2] = test: as §1, with “minimal” for “rich”, “ethanol and glycerol” for “dextrose”, “as” for “as a”, “sources” for “source”, “Nitrogen Base, Ethanol, Glycerol; YNBEG).” for “Extract, Peptone, Dextrose; YPD).”
Saccharomyces cerevisiae [3] = test: as §1, with “minimal” for “rich”, “Nitrogen Base,” for “Extract, Peptone,”, “YNBD).” for “YPD).”

SMILES	Relative Growth (Saccharomyces cerevisiae [1])	Relative Growth (Saccharomyces cerevisiae [2])	Relative Growth (Saccharomyces cerevisiae [3])
O=C(Nc1ccccc1O)c1ccc(Oc2cccc(C(=O)Nc3ccccc3O)c2)cc1	-0.023	-0.0198	0.0291
Cl.N=c1n(CCN2CCCCC2)c2ccccc2n1CC(O)c1cccc(Br)c1 (configuration not stated)	-0.0788	-0.5142	-0.2329
O=C(NCc1ccco1)C1CCN(S(=O)(=O)c2ccc(Cl)cc2)CC1	-0.0768	-0.0245	-0.224
COc1ccc(C(=O)Nc2ccc3nc(N4CCCCC4)cc(C)c3c2)cc1OC	-0.0828	-0.4538	-0.1419
FC(F)(F)c1ccc(Nc2nnnc3ccccc23)cc1	-0.97	0.0852	-0.0492
CCC(C)NCC(O)(c1ccc(Cl)cc1)c1ccc(Cl)cc1 (configuration not stated)	0.0173	-0.0906	0.042
CCOc1cc(Cl)c(C(C)NC(=O)c2ccccc2)cc1OCC (configuration not stated)	0.0477	-0.1365	-0.0221
O=C(c1ccccc1F)N(Cc1ccc(Cl)cc1)c1ccccn1	-0.0537	-0.0049	0.0025
COc1ccc(C(=O)Nc2ccc(Cl)cc2C(=O)Nc2ccncc2)cc1	-0.2989	0.1271	-0.1015
Cc1c(C)n(Cc2ccc(F)cc2)c2ccc(C(=O)NCc3ccco3)cc12	-0.5565	-1.0264	-0.1235
Cc1ccc(CN2CCC(C(=O)Nc3ccc(-c4cc5ccccc5[nH]4)cc3)CC2)o1	0.0612	-0.0247	-0.0113
Cc1cc(C)c2nc(N3CCC(C(=O)NCCCN4CCC(N5CCCCC5)CC4)CC3)sc2c1	-0.0409	-0.0414	-0.0696
CCn1c(SCC(=O)Nc2cc(C(F)(F)F)ccc2Cl)nc2ccccc2c1=O	-0.0109	-0.159	-0.0156
COc1ccc(C2N(C)c3ccccc3N2C)cc1	-0.0039	0.0867	-0.0194
CC(C)(C)CC(C)(C)NCC(O)COc1ccc2c(c1)CCC2.Cl (configuration not stated)	-0.08	-0.1886	-0.0891
O=C(Nc1ccc(F)c(Cl)c1)Nc1ccc(Cl)c(Cl)c1	-0.0686	-0.9478	0.0832
CCOc1ccccc1CNC(=O)C1c2ccccc2C(=O)N(CC(C)C)C1c1cccs1 (configuration not stated)	-0.0674	-0.1153	0.0472
CN1c2ccccc2N(C)C1c1ccc2c(c1)OCO2	0.0103	0.1265	-0.0051
C=C(C)CCC(C)N1CCC(N2CCC(C(=O)NCCc3ccccc3)CC2)CC1 (configuration not stated)	-0.0567	-0.0755	0.0261
